Test results reported in patent publication US9050353B2, “Use of icariin and epimedium flavonoids containing icariin to treat diseases associated with myelin sheath lesion” (Xuanwu Hospital of Capital Medical University, priority 2010, dated 2015).

What was measured:
IL-6 = experiment: Serum IL-6 content by ELISA, EAE mice; type: in vivo; conditions: positive control drug, dose not given
Protocol: (§1) Preparation of mice model and administration: experimental autoimmune encephalomyelitis (EAE) mice model is an important tool for studying various human demyelinating diseases of nervous system. In the present experiment, the preparation of EAE mice model was performed by immunizing female C57BL/6J mice with myelin sheath oligodendroglial cell surface glycoprotein MOG35-55. That is, the mice were subcutaneously injected at dorsal part of spinal column with 0.2 mL of MOG35-55 antigen elixir, and 0.2 ml of bordetella pertussis solution was intraperitoneally injected at the time of immunization injection and 48 h thereafter, respectively. Icariin was intragastrically administered after the last injection of bordetella pertussis solution, for consecutive 3 weeks.
(§2) Experimental objective: interleukin-1 (IL-1) and IL-6 are important inflammatory cytokines, and have promoting effects on inflammatory reactions. This experiment used enzyme linked immunosorbent assay (ELISA) to measure contents of IL-1 and IL-6 in serums of EAE mice model, and the effects of icariin on these contents were observed.
(§3) Experimental method: mice were anesthetized with pentobarbital sodium, blood sample was taken from abdominal aorta, stood at room temperature for 2 h, centrifuged at 3000 rpm for 20 min, and supernatant was taken, stored at −80° C. for use. The operation was performed strictly according to the steps of specification of ELISA kit. Optical density was measured with ELIASA at 450 nm. The corresponding contents of IL-1 and IL-6 were calculated with the measured OD values on standard curves.

nitric oxide (NO) = experiment: NO content of cerebral cortex, biochemical kit, EAE rats; type: in vivo; conditions: positive control drug, dose not given
Protocol: (§4) Preparation of rat model and administration: experimental autoimmune encephalomyelitis (EAE) model is an important tool for studying various human demyelinating diseases of nervous system. In the example, the preparation of EAE rat model was performed by multipoint immunizing female Lewis rats subcutaneously at tail root with a homogenate of spinal cord and cerebral gray matter of Guinea pig as well as complete Freund's adjuvant after emulsification. They were intragastrically administered with Epimedium flavanoids for 3 weeks.
(§5) Experimental objective: nitric-oxide synthase (NOS) catalyzes the generation of nitric oxide (NO). During inflammatory reaction, the activity of induced NOS increases, excess NO are generated and oxygen radicals are generated via oxidation, which may result in damages in nerve cells and myelin sheath. In this experiment, NOS activity and NO content were measured using biochemical kits in cerebral cortex of EAE rat model, and the effects of Epimedium flavanoids on changes thereof were observed. […]

IL-1 = experiment: Serum IL-1 content by ELISA, EAE mice; type: in vivo; conditions: positive control drug, dose not given
Protocol: as §1, §2, §3

[1] = system: inflammatory cell infiltration of spinal cord lumbar intumescentia in EAE rat model; experiment: Inflammatory cell infiltration of spinal cord lumbar intumescentia, HE staining, EAE rats; type: in vivo; conditions: positive control drug, dose not given, scale 0-4
Protocol: as §4, with “weeks. […]” for “weeks.”
(§6) Experimental method: the rats were anesthetized with 10% chloral hydrate on the 14th day of experiment, fixed by perfusion of 4% paraformaldehyde, spinal cord tissues were taken for making paraffin sections, section thickness 4 μm. (1) Stained with LFB, observed under microscope, and scored according to the following standard: 0 score, absence of myelinoclasis; 1 score, one small range of myelinoclasis; 2 score, 2 or 3 small ranges of myelinoclasis; 3 score, 1 to 2 large ranges of myelinoclasis; 4 score, large ranges of myelinoclasis accumulatively existing in 20% or more of white matter regions. […]

[2] = system: experimental autoimmune encephalomyelitis (EAE) mice model; experiment: Nervous function damage score in EAE mice model; type: in vivo, C57BL/6J mice; conditions: peak of attack, positive control drug, dose not given, scale 0-5
Protocol: as §1
Nervous function test method: the ethological changes of mice were observed by two experimenters every day using blind method. Scoring standard: 0 score, absence of symptom; 1 score, decrease of tail tension, evident slight gait awkward; 2 score, disappearance of tail tension, moderate gait abnormal, deficient in maintaining gesture; 3 score, limb strength weak; 4 score, limb paralysis; 5 score, near death or died.

[3] = system: myelinoclasis of spinal cord lumbar intumescentia in EAE rat model; experiment: Myelinoclasis of spinal cord lumbar intumescentia, LFB staining, EAE rats; type: in vivo; conditions: positive control drug, dose not given, scale 0-4
Protocol: as §4, with “weeks. […]” for “weeks.”
as §6

TNF-α = TNF-α content of cerebral cortex by ELISA, EAE rats; type: in vivo; conditions: positive control drug, dose not given
Protocol: as §4
Experimental objective: tumor necrosis factor α (TNF-α) is an important inflammatory cytokines, and has promoting effects on inflammatory reactions. This experiment used enzyme linked immunosorbent assay (ELISA) to measure TNF-α content of cerebral cortex in EAE rat model, and observe the effects of Epimedium flavanoids on the content.
Experimental method: rats were anesthetized and sacrificed, fresh brain tissues were was taken, processed to form cerebral cortex homogenate. The operation was performed strictly according to the steps of specification of ELISA kit. Optical density was measured with ELISA at 450 nm. The corresponding TNF-α content was calculated with the measured OD values on standard curve.

[4] = system: myeloid tissue myelinoclasis in EAE mice model; experiment: Myelinoclasis of myeloid tissue, LFB staining, EAE mice; type: in vivo; conditions: positive control drug, dose not given, scale 0-4
Protocol: as §1
Experimental objective: the myelinoclasis of myeloid tissue of EAE model mice were assayed by Luxol Fast Blue (LFB) staining, and the intervention effects of icariin on this pathological change were studied.
Experimental method: the mice were anesthetized with 10% chloral hydrate on the 29th day of experiment, fixed by perfusion of 4% paraformaldehyde, myeloid tissues were taken for making paraffin sections, section thickness […]. Stained with LFB, observed under microscope, and scored according to the following standard: 0 score, absence of myelinoclasis; 1 score, one small range of myelinoclasis; 2 score, 2 or 3 small ranges of myelinoclasis; 3 score, 1 to 2 large ranges of myelinoclasis; 4 score, large ranges of myelinoclasis accumulatively existing in 20% or more of white matter regions.

[5] = system: nitric-oxide synthase (NOS); experiment: NOS activity of cerebral cortex, biochemical kit, EAE rats; type: in vivo; conditions: positive control drug, dose not given
Protocol: as §4, §5

CC(=O)OCC(=O)[C@@]1(O)CC[C@H]2[C@@H]3CCC4=CC(=O)C=C[C@]4(C)[C@H]3C(=O)C[C@@]21C [prednisone acetate]
IL-6 content (IL-6): 0.121 ± 0.010 pg/mL
NO content (nitric oxide (NO)): 0.77 ± 0.01 mmol/mg protein
IL-1 content (IL-1): 0.115 ± 0.001 pg/mL
Inflammatory cell infiltration (HE staining score) [1]: 1.00 ± 0.29
Nervous function damage score [2]: 0.89 ± 0.28
Myelinoclasis (LFB staining score) [3]: 0.89 ± 0.20
TNF-α content (TNF-α): 64.29 ± 7.52 pg/mg pro
Myelinoclasis (LFB staining score) [4]: 0.77 ± 0.22
NOS activity [5]: 2.44 ± 0.08 U/mg protein
